Test results: ChEMBL document CHEMBL6115010, “Targeting glioma with heteroaromatic alkaloids: A review of potential therapeutics” (Bioorg Med Chem, 2025)
Converted amounts (≈) assume the structure as drawn. One block for each compound: values may come before it.

Columns and labels:
U-118-MG [1] = assay: Antiproliferative activity against human U-118-MG cells assessed as inhibition of cell proliferation incubated for 72 hrs by CCK8 assay; type: functional, cell-based
U-87 MG [2] = assay: Antiproliferative activity against human U-87 MG cells assessed as reduction in cell growth measured for 24 hrs by MTT assay; type: functional, cell-based, U-87MG ATCC
U-251 [3] = assay: Induction of apoptosis in human U-251MG cells assessed as increase in PARP cleavage at 12.5 to 100 uM incubated for 24 hrs by Western blot analysis; type: functional; settings: dose 12.5-100 µM
H4 = assay: Antiproliferative activity against human H4 cells assessed as reduction in cell viability incubated for 72 hrs by Presto-Blue cell viability assay; type: functional, cell-based; settings: H4, 72 h
U-87 MG [4] = assay: Antiproliferative activity against human U-87 MG cells assessed as reduction in cell viability incubated for 72 hrs by Presto-Blue cell viability assay; type: functional, cell-based, U-87MG ATCC
U-87 MG [5] = assay: Antitumor activity against human U-87 MG cells xenografted in mouse model assessed as reduction in tumor growth at 15 mg/kg, ip administered once daily for 5 days relative to control; type: functional, U-87MG ATCC; parameters: scale not given: the % may be the effect or the level left; settings: time 5 day
T98G [6] = assay: Antiproliferative activity against human T98G cells assessed as reduction in cell viability incubated for 96 hrs by MTT assay; type: functional, cell-based
T98G [7] = assay: Induction of apoptosis in human T98G cells at 10 ug/ml relative to control; type: functional; settings: dose 10 µg/ml
C6 [8] = assay: Cytotoxicity against rat C6 cells assessed as reduction in cell growth measured for 48 hrs by MTT assay; type: functional, cell-based; settings: C6, 48 h
C6 [9] = assay: Antiproliferative activity against rat C6 cells assessed as reduction in cell viability incubated foe 24 hrs by MTT assay; type: functional, cell-based; settings: C6, 24 h
U-87 MG [10] = assay: Antiproliferative activity against human U-87 MG cells assessed as reduction in cell viability incubated foe 24 hrs by MTT assay; type: functional, cell-based, U-87MG ATCC
U-87 MG [11] = assay: Antiproliferative activity against human U-87 MG cells assessed as reduction in cell viability at 50 uM incubated for 48 hrs by CCK-8 assay relative to control; type: functional, U-87MG ATCC
U-251 [12] = assay: Antiproliferative activity against human U-251MG cells assessed as reduction in cell viability at 50 uM incubated for 48 hrs by CCK-8 assay relative to control; type: functional
U-87 MG [13] = assay: Antiproliferative activity against human U-87 MG cells assessed as reduction in cell viability incubated for 48 hrs by CCK-8 assay; type: functional, cell-based, U-87MG ATCC
LN-18 = assay: Antiproliferative activity against human LN-18 cells assessed as reduction in cell viability incubated for 48 hrs by CCK-8 assay; type: functional, cell-based; settings: LN-18, 48 h
U-251 [14] = assay: Growth inhibition of human U-251 cells measured after 48 hrs by sulforhodamine B assay; type: functional
HaCaT = assay: Growth inhibition of human HaCaT cells measured after 48 hrs by sulforhodamine B assay; type: functional
SF-268 [15] = assay: Cytotoxicity against human SF-268 cells assessed as reduction in cell viability incubated for 4 days by MTT assay; type: functional; settings: SF-268, 96 h, time 4 day
RPMI 8402 = assay: Cytotoxicity against human RPMI 8402 cells assessed as reduction in cell viability incubated for 4 days by MTT assay; type: functional, cell-based; settings: RPMI 8402, 96 h
SF-268 [16] = assay: Cytotoxicity against human SF-268 cells; type: functional; settings: read-out: ED50 (the source's name)
U-87 MG [17] = assay: Antiproliferative activity against human U-87 MG cells assessed as reduction in cell viability incubated for 72 hrs by MTT assay; type: functional, cell-based, U-87MG ATCC
U-251 [18] = assay: Antiproliferative activity against human U-251MG cells assessed as reduction in cell viability incubated for 72 hrs by MTT assay; type: functional, cell-based; settings: U-251, 72 h
U-118-MG [19] = assay: Antiproliferative activity against human U-118-MG cells assessed as reduction in cell viability incubated for 72 hrs by MTT assay; type: functional, cell-based
[20] = Cytotoxicity against HEK293T cells assessed as reduction in cell viability incubated for 72 hrs by MTS assay; type: toxicity, cell-based, HEK-293T; settings: human
U-87 MG [21] = assay: Antiproliferative activity against human U-87 MG cells assessed as reduction in cell viability incubated for 72 hrs by WST-8 reagent based assay; type: functional, U-87MG ATCC
T98G [22] = assay: Antiproliferative activity against human T98G cells assessed as reduction in cell viability incubated for 72 hrs by WST-8 reagent based assay; type: functional
[23] = Inhibition of colony formation in human U-251MG cells assessed as reduction in number of cell clone measured after 14 days by crystal violet staining based microscopic analysis; type: functional; settings: 336 h
T98G [24] = assay: Inhibition of colony formation in human T98G cells assessed as reduction in number of cell clone measured after 14 days by crystal violet staining based microscopic analysis; type: functional; settings: 336 h
T98G [25] = assay: Anticancer activity against human T98G cells assessed as reduction in cell viability; type: functional, cell-based

SMILES: COc1ccc2cc1Oc1ccc(cc1)C[C@H]1c3cc(c(OC)cc3CCN1C)Oc1c(O)c(OC)cc3c1[C@H](C2)N(C)CC3 [FANGCHINOLINE]
- IC50 (U-118-MG [1]): 44.2 µM
- IC50 (U-87 MG [2]): 39.3 µM

SMILES: COc1ccc2c(c1)[nH]c1c(C)nccc12 [HARMINE]
- Activity (U-251 [3]): 346%
- IC50 (H4): 4.9 µM
- IC50 (U-87 MG [4]): 45.3 µM
- Activity (U-87 MG [5]): 16.5%

SMILES: COc1ccc2c(c1O)-c1c(O)c(OC)cc3c1[C@H](C2)[N+](C)(C)CC3 [MAGNOFLORINE]
- IC50 (T98G [6]): 112 µg/mL
- Activity (T98G [7]): 24.02%

SMILES: COc1ccc(C[C@@H]2c3cc(Oc4cc(C[C@@H]5c6cc(OC)c(OC)cc6CCN5C)ccc4O)c(OC)cc3CCN2C)cc1 [NEFERINE]
- IC50 (C6 [8]): 12 µM

- IC50 (U-87 MG [10]): 10 µM
- IC50 (U-87 MG [13]): 5 µM
SMILES: COc1cc2c[n+](C)c3c4cc5c(cc4ccc3c2cc1OC)OCO5.[Cl-] [NITIDINE CHLORIDE]
- IC50 (C6 [9]): 8 µM
- Activity (U-87 MG [11]): ~50%
- Activity (U-251 [12]): ~50%
- IC50 (LN-18): 5 µM

- GI50 (U-251 [14]): 16.2 µM
SMILES: COc1cc2c(cc1OC)-c1cc3ccc(OC)c(OC)c3c[n+]1CC2 [PALMITINE]
- GI50 (HaCaT): 122 µM
- GI50 (SF-268 [15]): 3 µg/mL
- IC50 (RPMI 8402): 10 µg/mL

SMILES: O=C1N[C@H]2[C@H](O)[C@H](O)[C@@H](O)[C@H](O)[C@@H]2c2cc3c(c(O)c21)OCO3 [PANCRATISTATIN]
- EC50 (SF-268 [16]): 0.017 µg/mL (≈ 0.0523 µM)

- IC50 (U-87 MG [17]): 135 µM
- IC50 (U-251 [18]): > 320 µM
- EC50 (U-87 MG [21]): 42 µM
- EC50 [23]: 23 µM
- EC50 (T98G [24]): 430 µM
SMILES: Cn1nnc2c(C(N)=O)ncn2c1=O [TEMOZOLOMIDE]
- IC50 (U-118-MG [19]): > 320 µM
- IC50 at 72 h [20]: > 50 µg/mL
- EC50 (T98G [22]): 390 µM
- EC50 (T98G [25]): 150 µM
